Measured values: article PMC11303563 (Communications Medicine, 2024)
Where “and” joins values, the source holds several entries; their conditions need not be identical. Equal values may be shown once.

Legend:
Assay type in all cases: in vivo, C57BL/6J mice
[1] = test system: high-fat diet (HFD)-induced obesity model mice; assay: Body weight of high-fat diet-induced obesity model mice; parameters: Body weight, Mean Diff. ND vs. treated: unit not given here; details: for Body weight, 95.00% CI of diff. ND vs. treated / Body weight, Mean Diff. ND vs. treated: ND group as comparator; for Body weight, 95.00% CI of diff. ND vs. treated / Body weight, Mean Diff. ND vs. treated / Body weight, 95.00% CI of diff. Vehicle vs. treated / Body weight, Mean Diff. Vehicle vs. treated: Tukey's multiple comparisons test; for Body weight, Mean Diff. Vehicle vs. treated / Body weight, group mean (Fig. 3a) / Body weight, individual mice (Fig. 3a): in g (unit assumed); for Body weight, group mean (Fig. 3a): n 10
Procedure: The injection was given 6 h after light on. Food consumption and body weights were measured weekly. Food and water were provided to the animals ad libitum. The animals were treated according to the guidelines of Nagoya University, and all experimental procedures were approved by the Animal Experiment Committee of Nagoya University (A210715-003).
(§1) Epididymal adipose tissue was weighed.
(§2) Fig. 3 Effects of intraperitoneal injection of TH analogs on body weight and deposition of visceral fat. […] After three weeks of injection, body weight (a), and weight of the epididymal adipose tissue (b) were measured.

[2] = test system: high-fat diet (HFD)-induced obesity model mice; assay: Weight of epididymal adipose tissue (visceral fat) in HFD mice; details: for Fig. 3b (weight of epididymal adipose tissue), group mean (Mean 2) / Epididymal adipose weight, individual mice (Fig. 3b) / weight of the epididymal adipose tissue vs vehicle: HFD mice; for Fig. 3b (weight of epididymal adipose tissue), group mean (Mean 2): n=10; for Fig. 3b (weight of epididymal adipose tissue), group mean (Mean 2) / Fig. 3b (weight of epididymal adipose tissue), Mean Diff. ND vs. treatment (Tukey) / Fig. 3b (weight of epididymal adipose tissue), Mean Diff. Vehicle vs. treatment (Tukey) / Epididymal adipose weight, individual mice (Fig. 3b): in mg (unit assumed); for Fig. 3b (weight of epididymal adipose tissue), Mean Diff. ND vs. treatment (Tukey): ND minus treated; for Fig. 3b (weight of epididymal adipose tissue), Mean Diff. Vehicle vs. treatment (Tukey): Vehicle minus treated; for weight of the epididymal adipose tissue vs vehicle: 3 weeks
Procedure: as §1, §2

[3] = test system: high-fat diet (HFD)-induced obesity model mice; assay: Serum lipid analysis (total cholesterol, triglycerides) in HFD mice; parameters: Serum TC (Fig. 4a), individual mouse values / Serum TG (Fig. 4b), individual mouse values / Serum TC (Fig. 4a), Mean Diff. ND vs. treatment (Tukey) / Serum TC (Fig. 4a), Mean Diff. Vehicle vs. treatment (Tukey) / Serum TC (Fig. 4a), group mean (Mean 2) / Mean Diff., ND vs. treated (Fig. 4b) / Mean Diff., Vehicle vs. treated (Fig. 4b) / Mean (Fig. 4b): unit not given here; details: for Serum TC (Fig. 4a), individual mouse values / Serum TG (Fig. 4b), individual mouse values / Serum TC (Fig. 4a), group mean (Mean 2): HFD mice; for Serum TC (Fig. 4a), group mean (Mean 2): n=10; for Serum TC (Fig. 4a), Mean Diff. ND vs. treatment (Tukey): ND minus treated; for Serum TC (Fig. 4a), Mean Diff. Vehicle vs. treatment (Tukey): Vehicle minus treated; for Mean Diff., ND vs. treated (Fig. 4b) / Mean Diff., Vehicle vs. treated (Fig. 4b): Tukey's multiple comparisons test
Procedure: Fig. 4 Effects of TH analogs on the accumulation of lipids in mice. […] After 3 weeks of injection, serum and liver tissues were collected, and the amount of serum cholesterol (a), serum triglycerides (b), liver cholesterol (c), liver triglycerides (d), and liver total lipids (e) were measured.

O=C(O)Cc1cc(C(F)(F)F)c(Cc2ccc(O)c3ccccc23)c(C(F)(F)F)c1 [ZTA-261]
Body weight, 95.00% CI of diff. ND vs. treated ([1]; 0.1 µmol dose group): -17.31 to -8.599
Body weight, Mean Diff. ND vs. treated ([1]; 0.1 µmol dose group): -12.95
Body weight, 95.00% CI of diff. Vehicle vs. treated ([1]; 0.1 µmol dose group): -2.779 to 5.659
Body weight, Mean Diff. Vehicle vs. treated ([1]; 0.1 µmol dose group): 1.44
Body weight, 95.00% CI of diff. ND vs. treated ([1]; 1 µmol dose group): -11.31 to -2.596
Body weight, Mean Diff. ND vs. treated ([1]; 1 µmol dose group): -6.951
Body weight, 95.00% CI of diff. Vehicle vs. treated ([1]; 1 µmol dose group): 3.224 to 11.66
Body weight, Mean Diff. Vehicle vs. treated ([1]; 1 µmol dose group): 7.443
Body weight, group mean (Fig. 3a) ([1]; HFD mice, 0.1 µmol dose group): 41.47
Body weight, individual mice (Fig. 3a) ([1]; HFD mice, 0.1 µmol dose group): 40.29 and 36.71 and 35.46 and 47.2 and 43.74 and 41.64 and 46.66 and 44.04 and 36.76 and 42.23
Body weight, group mean (Fig. 3a) ([1]; HFD mice, 1 µmol dose group): 35.47
Body weight, individual mice (Fig. 3a) ([1]; HFD mice, 1 µmol dose group): 32.91 and 31.68 and 37.61 and 39.1 and 35.68 and 36.65 and 37.77 and 35.13 and 35.26
body weight vs vehicle (in words) ([1]; HFD mice, i.p. 0.1 µmol/kg day, 3 weeks): did not significantly reduce body weight
decrease of body weight compared to vehicle ([1]; HFD mice, i.p. 1 µmol/kg day, 3 weeks): ~ 20%
Fig. 3b (weight of epididymal adipose tissue), group mean (Mean 2) ([2]; 0.1 µmol): 2650
Fig. 3b (weight of epididymal adipose tissue), Mean Diff. ND vs. treatment (Tukey) ([2]; 0.1 µmol): -1966
Fig. 3b (weight of epididymal adipose tissue), Mean Diff. Vehicle vs. treatment (Tukey) ([2]; 0.1 µmol): 208.4
Fig. 3b (weight of epididymal adipose tissue), group mean (Mean 2) ([2]; 1 µmol): 1679
Fig. 3b (weight of epididymal adipose tissue), Mean Diff. ND vs. treatment (Tukey) ([2]; 1 µmol): -996
Fig. 3b (weight of epididymal adipose tissue), Mean Diff. Vehicle vs. treatment (Tukey) ([2]; 1 µmol): 1179
Epididymal adipose weight, individual mice (Fig. 3b) ([2]; 0.1 µmol dose group): 2776.2 and 2045.1 and 1929.4 and 2510.8 and 2876.4 and 3044.5 and 3312.5 and 2871.5 and 2180.4 and 2949.5
Epididymal adipose weight, individual mice (Fig. 3b) ([2]; 1 µmol dose group): 1625 and 1387 and 1309.2 and 1666.6 and 1860.1 and 1033.5 and 2042 and 1824.7 and 1973.2 and 2072
weight of the epididymal adipose tissue vs vehicle ([2]; i.p. 0.1 µmol/kg day): did not show any obvious effect
weight of the epididymal adipose tissue vs vehicle ([2]; i.p. 1 µmol/kg day): decreased significantly
Serum TC (Fig. 4a), individual mouse values ([3]; 0.1 µmol): 170.917 and 174.042 and 146.958 and 171.875 and 171.042 and 164.292 and 178.75 and 197.208 and 153.333 and 201.333
Serum TG (Fig. 4b), individual mouse values ([3]; 0.1 µmol): 76.25 and 92.083 and 101.25 and 78.417 and 57.583 and 89.25 and 104.25 and 84.25 and 81.75
Serum TC (Fig. 4a), group mean (Mean 2) ([3]; 0.1 µmol): 173
Serum TC (Fig. 4a), Mean Diff. ND vs. treatment (Tukey) ([3]; 0.1 µmol): 6.447
Serum TC (Fig. 4a), Mean Diff. Vehicle vs. treatment (Tukey) ([3]; 0.1 µmol): 77.09
Serum TC (Fig. 4a), individual mouse values ([3]; 1 µmol): 100.083 and 106.125 and 141.958 and 148.125 and 147.292 and 139.708 and 132.5 and 117.5 and 94.583 and 113
Serum TG (Fig. 4b), individual mouse values ([3]; 1 µmol): 52.917 and 53.75 and 90.417 and 88.75 and 67.917 and 87.917 and 73.75 and 69.583 and 82.083 and 85.417
Serum TC (Fig. 4a), group mean (Mean 2) ([3]; 1 µmol): 124.1
Serum TC (Fig. 4a), Mean Diff. ND vs. treatment (Tukey) ([3]; 1 µmol): 55.33
Serum TC (Fig. 4a), Mean Diff. Vehicle vs. treatment (Tukey) ([3]; 1 µmol): 126
Mean Diff., ND vs. treated (Fig. 4b) ([3]; ND minus 0.1 µmol group): 62.42
Mean Diff., ND vs. treated (Fig. 4b) ([3]; ND minus 1 µmol group): 71.52
Mean Diff., Vehicle vs. treated (Fig. 4b) ([3]; Vehicle minus 0.1 µmol group): 31.43
Mean Diff., Vehicle vs. treated (Fig. 4b) ([3]; Vehicle minus 1 µmol group): 40.53
